Assay results: US12091656B2, “Method for generating higher order genome editing libraries” (Johann Wolfgang Goethe-Universität Frankfurt am Main, priority 2016, dated 2024)

Tests used:
RPE1 cells [1] = assay: Titration of CYSLTR2 antagonists against Doxorubicin, AlamarBlue cell viability assay; type: cell-based, human; conditions: 4 days
Description: FIG. 6: Identifying Doxorubicin resistance with an optimized 3Cs-gRNA library. A) Experimental scheme illustrating the usage of hTERT-RPE1 cells, transduced with lentiviral particles (MOI=1) and selected with 1 μM Doxorubicin for three weeks. B) NGS- and bioinformatically-based identification of Doxorubicin-resistance inducing gRNAs and their location within annotated human genomic DNA. C) The CYSLTR2 gene is a reproducible protein-coding hit for which two chemical inhibitors are commercially available. Both inhibitors are titrated versus increasing concentrations of Doxorubicin and induce resistance to Doxorubicin.
Of all remaining gRNAs, 45.6% are located in coding regions, 22.2% are in introns and 10.5% are in non-coding (RNA coding) regions (FIG. 6b). However, 21.7% of gRNAs are located in genomic regions for which no biotype could be assigned, indicating a gap of knowledge for those regions (FIG. 6b). To validate some of the findings in a CRISPR/Cas independent manner, the protein-coding hit gene CYSLTR2 was chosen for which two chemical antagonists are commercially available. The inventors titrated increasing concentrations of Doxorubicin against increasing concentrations of the two compounds (BayCysLTR2 and Bay u9773) and incubated drug exposed RPE1 cells for 4 days after which they were subject to the cell viability assays AlamarBlue.

RPE1 cells [2] = assay: Doxorubicin effect on RPE1 cell viability (unperturbed conditions); type: cell-based, human; conditions: within 4 days

| Structure (SMILES) | strength of the reversion effect compared with the other CYSLTR2 antagonist (RPE1 cells [1]; FIG. 6c) | reversion of the cytotoxic effect of Doxorubicin (RPE1 cells [1]; increasing concentrations titrated against increasing Doxorubicin) | reduction of RPE1 cell viability (RPE1 cells [2]) |
| --- | --- | --- | --- |
| CCCCC/C=C\C\C=C/C=C/C=C/[C@@H](Sc1ccc(C(=O)O)cc1)[C@@H](O)CCCC(=O)O [Bay u9773] | reproducibly stronger effect | able to revert the cytotoxic effect of Doxorubicin in a dose-dependent manner |  |
| COc1cccc2c1C(=O)c1c(O)c3c(c(O)c1C2=O)C[C@@](O)(C(=O)CO)C[C@@H]3O[C@H]1C[C@H](N)[C@H](O)[C@H](C)O1 [Doxorubicin] |  |  | robust and dose-dependent reduction of RPE1 cell viability |
